Like-named read-outs stand apart in the source and are kept apart here.
What was measured:
Assay in all cases: cells
Capan-1 [1] = system: Capan-1; parameters: ATPlite luminescence viability of PDAC cell lines, 11-dose single-agent curves, 4-parameter fit; conditions: Homo sapiens, CAPAN-1, 72 h, read-out: EC50 [nM]
Method in brief: (§1)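 Drug-combination screening used cells plated at 1000 to 5000 per well one day before treatment. Final DMSO was 0.2%. Each plate held untreated negative-control wells and 5 µM staurosporine positive-control wells.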

HPDE = system: HPDE; parameters: ATPlite luminescence viability of PDAC cell lines, 11-dose single-agent curves, 4-parameter fit; conditions: HPDE, 72 h, read-out: EC50 [nM]
Method in brief: as §1

PANC-1 [2] = system: PANC-1; parameters: ATPlite luminescence viability of PDAC cell lines, 11-dose single-agent curves, 4-parameter fit; conditions: Homo sapiens, PANC-1, 72 h, read-out: EC50 [nM]
Method in brief: as §1

AsPC-1 [3] = system: AsPC-1; parameters: ATPlite luminescence viability of PDAC cell lines, 11-dose single-agent curves, 4-parameter fit; conditions: Homo sapiens, ASPC1, 72 h, read-out: EC50 [nM]
Method in brief: as §1

FAMPAC [4] = system: FAMPAC; parameters: ATPlite luminescence viability of PDAC cell lines, 11-dose single-agent curves, 4-parameter fit; conditions: 72 h, read-out: EC50 [nM]
Method in brief: as §1

Dan-G = system: Dan-G; parameters: ATPlite luminescence viability of PDAC cell lines, 11-dose single-agent curves, 4-parameter fit; conditions: 72 h, read-out: EC50 [nM]
Method in brief: as §1

Suit2-07 = system: Suit2-07; parameters: ATPlite luminescence viability of PDAC cell lines, 11-dose single-agent curves, 4-parameter fit; conditions: 72 h, read-out: EC50 [nM]
Method in brief: as §1

PaTu-8988-T = system: PaTu-8988-T; parameters: ATPlite luminescence viability of PDAC cell lines, 11-dose single-agent curves, 4-parameter fit; conditions: Homo sapiens, PaTu 8988t, 72 h, read-out: EC50 [nM]
Method in brief: as §1

BxPC-3 = system: BxPC-3; parameters: ATPlite luminescence viability of PDAC cell lines, 11-dose single-agent curves, 4-parameter fit; conditions: Homo sapiens, BXPC-3, 72 h, read-out: EC50 [nM]
Method in brief: as §1

HuP-T4 = system: HuP-T4; parameters: ATPlite luminescence viability of PDAC cell lines, 11-dose single-agent curves, 4-parameter fit; conditions: Homo sapiens, HuP-T4, 72 h, read-out: EC50 [nM]
Method in brief: as §1

MiaPaCa-2 = system: MiaPaCa-2; parameters: ATPlite luminescence viability of PDAC cell lines, 11-dose single-agent curves, 4-parameter fit; conditions: Homo sapiens, MIA PaCa-2, 72 h, read-out: EC50 [nM]
Method in brief: as §1

Colo-357 = system: Colo-357; parameters: ATPlite luminescence viability of PDAC cell lines, 11-dose single-agent curves, 4-parameter fit; conditions: Homo sapiens, COLO357, 72 h, read-out: EC50 [nM]
Method in brief: as §1

PSN-1 = system: PSN-1; parameters: ATPlite luminescence viability of PDAC cell lines, 11-dose single-agent curves, 4-parameter fit; conditions: Homo sapiens, PSN1, 72 h, read-out: EC50 [nM]
Method in brief: as §1

Capan-1 [5] = system: Capan-1; parameters: Viability of PDAC cell lines, ATPlite luminescence, 11-dose single-agent curve fit; conditions: Homo sapiens, CAPAN-1, 72 h, read-out: EC50 [nM]
Method in brief: (§2)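 screening used cells plated at 1000 to 5000 per well one day before treatment. Final DMSO was 0.2%. Each plate held untreated negative-control wells and 5 µM staurosporine positive-control wells.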

FAMPAC [6] = system: FAMPAC; parameters: Viability of PDAC cell lines, ATPlite luminescence, 11-dose single-agent curve fit; conditions: 72 h, read-out: EC50 [nM]
Method in brief: as §2

PANC-1 [7] = system: PANC-1; parameters: Viability of PDAC cell lines, ATPlite luminescence, 11-dose single-agent curve fit; conditions: Homo sapiens, PANC-1, 72 h, read-out: EC50 [nM]
Method in brief: as §2

AsPC-1 [8] = system: AsPC-1; parameters: Viability of PDAC cell lines, ATPlite luminescence, 11-dose single-agent curve fit; conditions: Homo sapiens, ASPC1, 72 h, read-out: EC50 [nM]
Method in brief: as §2

Row | SMILES | EC50 (Capan-1 [1]) [nM] | EC50 (HPDE) [nM] | EC50 (PANC-1 [2]) [nM] | EC50 (AsPC-1 [3]) [nM] | EC50 (FAMPAC [4]) [nM] | EC50 (Dan-G) [nM] | EC50 (Suit2-07) [nM] | EC50 (PaTu-8988-T) [nM] | EC50 (BxPC-3) [nM] | EC50 (HuP-T4) [nM] | EC50 (MiaPaCa-2) [nM] | EC50 (Colo-357) [nM] | EC50 (PSN-1) [nM] | EC50 (Capan-1 [5]) [nM] | EC50 (FAMPAC [6]) [nM] | EC50 (PANC-1 [7]) [nM] | EC50 (AsPC-1 [8]) [nM]
1 | CN1CCN(c2ccc(C(=O)Nc3n[nH]c4ccc(Cc5cc(F)cc(F)c5)cc34)c(NC3CCOCC3)c2)CC1 [Entrectinib] | 6260 | 3900 | 5790 | 5960 | 5900 | > 10000 | > 10000 | > 10000 | 3500 | > 10000 | 2720 | 4900 | > 10000 | – | – | – | –
2 | Cc1cnc(Nc2ccc(OCCN3CCCC3)cc2)nc1Nc1cccc(S(=O)(=O)NC(C)(C)C)c1 [Fedratinib] | 2030 | 1280 | 2200 | 622 | 1010 | 1630 | 320 | 274 | 659 | 8310 | 400 | 1070 | 827 | – | – | – | –
3 | CC(C)NC(=O)[C@H]1CC[C@@H](n2/c(=N/C(=O)c3ccc(F)cc3)[nH]c3ccc(CN4CCC(C(C)(C)O)CC4)cc32)CC1 [Belizatinib] | – | 1270 | 1860 | 496 | – | 4630 | 599 | 580 | 1420 | > 10000 | 308 | 7390 | 1340 | 8120 | 3220 | – | –
4 | Cc1ccc(C(=O)Nc2ccc(CN3CCN(C)CC3)c(C(F)(F)F)c2)cc1C#Cc1cnc2cccnn12 [Ponatinib] | > 10000 | 1930 | > 10000 | 1160 | 830 | 1200 | 618 | 357 | 739 | > 10000 | 335 | 9250 | 620 | – | – | – | –
5 | CC1(COc2ccc3c(c2)ncn3-c2ccc3cccc(N4CCC(N)CC4)c3n2)COC1 [Crenolanib] | – | 3500 | 8300 | > 10000 | 3340 | 5940 | 4860 | 5450 | 3600 | > 10000 | 2190 | 5080 | 5250 | 3710 | – | – | –
6 | C=CC(=O)Nc1cc(Nc2nccc(-c3cn(C)c4ccccc34)n2)c(OC)cc1N(C)CCN(C)C [Osimertinib] | 5860 | 542 | > 10000 | > 10000 | > 10000 | 2560 | > 10000 | > 10000 | > 10000 | 5300 | > 10000 | 347 | 5530 | – | – | – | –
7 | CN1CCN(c2ccc3nc(-c4c(N)c5c(F)cccc5[nH]c4=O)[nH]c3c2)CC1 [Dovitinib] | 4250 | 4540 | 4250 | > 10000 | 2170 | 3430 | 863 | 3150 | – | 3570 | 1680 | 4350 | 2720 | – | – | – | –
8 | Cc1cc(Nc2ncc(Cl)c(Nc3ccccc3S(=O)(=O)C(C)C)n2)c(OC(C)C)cc1C1CCNCC1 [Ceritinib] | 5480 | 1550 | > 10000 | 784 | 2770 | 2470 | 4690 | 1450 | 2870 | > 10000 | 563 | 2930 | 3390 | – | – | – | –
9 | Cc1ccc(NC(=O)c2ccc(CN3CCN(C)CC3)cc2)cc1Nc1nc(-c2cccnc2)cs1 [Masitinib] | 3950 | 5500 | 3250 | > 10000 | > 10000 | 3880 | > 10000 | 4770 | 3050 | > 10000 | 3770 | 6650 | 4380 | – | – | – | –
10 | COc1cc(Nc2ncc(F)c(Nc3ccc4c(n3)N(COP(=O)(O)O)C(=O)C(C)(C)O4)n2)cc(OC)c1OC [Fostamatinib] | 2290 | > 10000 | – | – | > 10000 | 1010 | 1360 | 1190 | 4790 | 3770 | 946 | 1410 | 2020 | – | – | 658 | > 10000
11 | Nc1cc(C(F)(F)F)c(-c2cc(N3CCOCC3)nc(N3CCOCC3)n2)cn1 [Buparlisib] | 663 | 1130 | 703 | 1030 | 752 | 493 | 479 | 724 | – | 1300 | 572 | 403 | 638 | – | – | – | –
12 | Cc1nc(Nc2ncc(C(=O)Nc3c(C)cccc3Cl)s2)cc(N2CCN(CCO)CC2)n1 [Dasatinib] | 704 | 580 | – | – | 48.5 | 8640 | 2600 | 16.6 | 78.9 | 139 | 4.67 | 4740 | 37.1 | – | – | 446 | > 10000
